{
  "source": "patent US9822128B1",
  "about": "“Substituted spirooxindoles” (KING SAUD UNIVERSITY, priority 2017, dated 2017)",
  "key": {"HCT-116 cells [1]": {"system": "HCT-116 cells", "experiment": "Induction of apoptosis (annexin-V / 7-AAD flow cytometry)", "assay_type": "cell-based, human", "method": "The HCT-116 cells were seeded at 5*10^4 cells/mL density in a 6-well plate. The cells were treated with 2 μM 4d for 48 hrs, and the cells were collected after trypsin enzyme treatment and washed two times with ice-cold 1×PBS. The cells were incubated for 2 hours at 4° C. in PBS, then centrifuged and re-suspended in 1× binding buffer. Then 5 μL PE annexin-V and 5 μL 7-amino-actinomycin D (7-AAD) were added to 100 μL of cell suspension and incubated for 15 min at RT in the dark, and then 400 μL of 1× binding buffer was added to the cell suspension and analyzed within 1 hour by BD Accuri™ C6 Plus flow cytometer. The following controls were used to set up the machine: cells unstained with PE annexin V and 7-AAD, cells stained with PE annexin V only, cells stained with 7-AAD only. The level of apoptotic cells, whether in early (+ve annexin-V and −ve PI) or late stage (+ve Annexin-V and +ve PI), was determined. […] The results are shown in FIG. 5A (untreated cells) and FIG. 5B (treated with just 1 μM of compound 4d for 24 hours)."}, "HCT-116 cells [2]": {"system": "HCT-116 cells", "experiment": "Wound-healing assay", "assay_type": "cell-based, human", "details": "HCT-116, 1 μM, images at 0, 4, 24 and 48 hours, vs DMSO", "method": "HCT-116 cells were seeded in 6 well plate as 10*10^4 cells per ml (2 ml in each well) and incubated overnight at 37° C. and 5% CO2. On the second day, a scratch was created in each well by using a sterile P200 tip, and then the medium was replaced with fresh medium containing either DMSO or 1 μM of compound 4d. Photomicrograph images were taken at different time points (0, 4, 24 and 48 hours) to monitor the wound closure. After that, the cells were washed two times with ice-cold 1×PBS and fixed with ice-cold methanol for 20 min at 4° C. The fixed cells were washed two times with 1×PBS and stained with 0.5% crystal violet for 30 min. The extra stain was washed off by dH2O until no color in the washing is observed. The images were captured by Gx microscopes (GXMGXD202 Inverted Microscope) (10× Eyepiece) after staining with crystal violet. The size of the wound was measured by using ImageJ 1.47v software. […] This confirms the ability of compound 4d to enhance tumor suppressor activities."}, "[3]": {"system": "p53 in HCT-116 (wt p53) cells", "experiment": "p53 activation, p53 protein level by flow cytometry", "assay_type": "cell-based, human", "details": "for shift in fluorescence (p53 antibody): 48 hours, untreated 23%", "method": "The determination of p53 protein level by flow cytometry was applied because it measures the level in a single cell and determines the heterogeneity of expression within a population of cells. HCT-116 (wt p53) cells were seeded at 5*10^4 cells/mL density in a 6-well plate (2 ml/well). The cells were treated with 1 or 2 μM of compound 4d for 48 hrs, and the cells were collected after trypsin enzyme treatment and washed two times with ice-cold 1×PBS. The cells were fixed with 4% paraformaldehyde for fixation and permeabilization, then washed one time with 1× ice-cold PBS and one time with PBS containing 2% FBS. Then an aliquot of the cells was incubated with an anti-p53 antibody for one hour, and then washed two times with PBS. After that, the same cells were stained with PI (propidium iodide). […] In order to confirm the effect of compound 4d on the activation of p53, we incubated the colon cancer cells with 2 μM of compound 4d, and after 24 hours, the cells were stained with the antibody against p53. […] See FIGS. 6B (1 μM treatment with compound 4d for 48 hours; 52.7% shift in fluorescence) and 6C (2 μM treatment with compound 4d for 48 hours; 60.1% shift in fluorescence) compared to FIG. 6A (untreated cancer cells; 23% shift in fluorescence)."}, "HepG2": {"system": "HepG2", "experiment": "MTT cytotoxicity assay, hepatocellular carcinoma cells", "assay_type": "cell-based, human", "details": "for IC50: Homo sapiens, HepG2, MTT, 48 hrs incubation", "method": "(§1) The cytotoxic activity of the compounds was tested against different mammalian cancer cells, prostate carcinoma cells (PC-3), hepatocellular carcinoma (HepG2) and colon cancer cells (HCT-116) and against African green monkey kidney cell line (Vero-B). The cell lines were obtained from American Type Culture Collection (ATCC). The cells were cultivated at 37° C. and 10% CO2 in DMEM (Lonza, 12-604F) medium supplemented with 10% fetal bovine serum (FBS, Lonza, Cat. No. 14-801E), 100 IU/ml penicillin and 100 μg/ml streptomycin (Lonza, 17-602E). Cisplatin (cis-diamineplatinum (II) dichloride) was used as a positive control and was obtained from Sigma then dissolved in 0.9% saline then stored as 8 mM stock solution at −20° C. The synthesized compounds were solubilized in DMSO and stored at −20° C. 0.5% crystal violet was prepared in Methanol and was used to stain the viable cells (Feoktistova, Geserick et al. 2016). Crystal violet binds to proteins and DNA in the adherent and viable cells so the stain is an indicator for the viability of the treated cells. The viability of the cells were quantified by using MTT reagent (3-(4,5-dimethylthiazol-2-yl)-2,5-diphenyl tetrazolium bromide), which measure the activity of mitochondrial dehydrogenase in the viable cells (Slater, Sawyer et al. 1963, Mosmann 1983).\n(§2) Cytotoxicity was further assayed as follows. The cells were seeded in 96-well plate as 5*10^4 cells/mL (100 μL/well). A serial dilutions of tested compounds or cisplatin (100, 30, 10, 3.3, 1.1 or 0.37 μM) was added after overnight incubation of the cells at 37° C. and 5% CO2. DMSO was used as a control (0.1%). The cells were incubated for 48 hrs. After that, 15 μl of MTT (5 mg/mL PBS) was added to each well and incubated for another 4 hours. The formazan crystals were solubilized by 100 μL acidified SDS solution (10% SDS/0.01 M HCl). The absorbance was measured after 14 hours of incubation at 37° C. and 5% CO2 at 570 nm by Biotech plate reader. Each experiment was repeated three times and standard deviation was calculated (±). IC50% was calculated as the concentration that cause 50% inhibition for cell growth. The growth of the cells were monitored and the images were acquired by Gx microscopes (GXMGXD202 Inverted Microscope) (10× Eyepiece) after staining with crystal violet."}, "HCT-116": {"system": "HCT-116", "experiment": "MTT cytotoxicity assay, colon cancer cells", "assay_type": "cell-based, human", "details": "for IC50: Homo sapiens, HCT-116, MTT, 48 hrs incubation", "method": "as §1, §2"}, "Vero-B": {"system": "Vero-B", "experiment": "MTT cytotoxicity assay, normal kidney cell line", "assay_type": "cell-based, African green monkey", "details": "Chlorocebus sabaeus, Vero B; Table 1; MTT, 48 hrs incubation; read-out: VERO-B (IC50% μM)", "method": "as §1, §2"}},
  "note": "Where two headings read alike, the source gives them in different places.",
  "data": [
    {"smiles": "O=C(/C=C/c1ccc(Cl)cc1Cl)[C@H]1[C@H](c2ccc(Cl)cc2Cl)[C@H]2CSCN2[C@]12C(=O)Nc1ccccc12", "note": "[Compound 4d, (3R,6′S,7′R,7a′S)-7′-(2,4-dichlorophenyl)-6′-((E)-3-(2,4-dichlorophenyl)acryloyl)-1′,6′,7′,7a′-tetrahydro-3′H-spiro[indoline-3,5′-pyrrolo[1,2-c]thiazol]-2-one]", "values": [
      {"measurement": "induction of apoptosis", "setting": "HCT-116 cells [1]; HCT-116, 1 μM, 24 hours", "result": "could induce the apoptosis"},
      {"measurement": "apoptotic cells", "setting": "HCT-116 cells [1]; HCT-116, 2 μM, 48 hours", "result": "greatly increased the apoptotic cells"},
      {"measurement": "wound closure", "setting": "HCT-116 cells [2]", "result": "inhibited wound closure"},
      {"measurement": "shift in fluorescence (p53 antibody)", "setting": "[3]; HCT-116, 1 μM", "result": 52.7, "unit": "%"},
      {"measurement": "shift in fluorescence (p53 antibody)", "setting": "[3]; HCT-116, 2 μM", "result": 60.1, "unit": "%"},
      {"measurement": "cell population positive for p53", "setting": "[3]; colon cancer cells, 2 μM, 24 hours", "result": "significant increase"},
      {"measurement": "IC50", "setting": "HepG2; read-out: HepG2 (IC50% μM)", "result": "0.85 ± 0.2", "unit": "µM"},
      {"measurement": "IC50", "setting": "HepG2; read-out: HepG2 (IC50% μg/ml)", "result": 0.5, "unit": "µg/mL"},
      {"measurement": "SI", "setting": "HepG2; Selectivity Index from IC50 normal (VERO-B) and IC50 cancer (HepG2)", "result": 5.882},
      {"measurement": "IC50", "setting": "HCT-116; read-out: HCT-116 (IC50% μM)", "result": "1.4 ± 0.6", "unit": "µM"},
      {"measurement": "IC50", "setting": "HCT-116; read-out: HCT-116 (IC50% μg/ml)", "result": 0.8, "unit": "µg/mL"},
      {"measurement": "selectivity index to the cancer cells", "setting": "HCT-116; broad spectrum, cancer cells", "result": "greater than 2"},
      {"measurement": "IC50", "setting": "Vero-B", "result": 5, "unit": "µM"}
    ]}
  ]
}
